Laboratory results published in ChEMBL document CHEMBL4819142, “Synthesis of propargylamine mycophenolate analogues and their selective cytotoxic activity towards neuroblastoma SH-SY5Y cell line” (Bioorg Med Chem Lett, 2021).

How the values were obtained:
SH-SY5Y = assay: Cytotoxicity against human SH-SY5Y cells assessed as growth inhibition measured by SRB assay; type: functional, cell-based
MDA-MB-231 = assay: Cytotoxicity against human MDA-MB-231 cells assessed as growth inhibition measured by SRB assay; type: functional, cell-based
FaDu = assay: Cytotoxicity against human FaDu cells assessed as growth inhibition measured by SRB assay; type: functional, cell-based
A549 = assay: Cytotoxicity against human A549 cells assessed as growth inhibition measured by SRB assay; type: functional, cell-based
[1] = Cytotoxicity against human […] cells assessed as growth inhibition measured by SRB assay; type: cell-based
HT-29 = assay: Cytotoxicity against human HT-29 cells assessed as growth inhibition measured by SRB assay; type: functional, cell-based
[2] = Cytotoxicity against human KKUM213 cells assessed as growth inhibition measured by SRB assay; type: functional, cell-based; conditions: KKU-M213

Compound `COC(=O)CC/C(C)=C/Cc1c(OC)c(C)c2c(c1OCC#CCN1CCN(C(=O)C3COc4ccccc4O3)CC1)C(=O)OC2` (stereo not given) has an IC50 (SH-SY5Y) greater than 50 µM, an IC50 (MDA-MB-231) greater than 50 µM and an IC50 (FaDu) greater than 50 µM. For the same compound, the IC50 (A549) was greater than 50 µM, the IC50 [1] was greater than 50 µM and the IC50 (HT-29) was greater than 50 µM. For the same compound, the IC50 [2] was greater than 50 µM.

In the case of `COC(=O)CC/C(C)=C/Cc1c(OC)c(C)c2c(c1OCC#CCN1CCN(c3ccccc3)CC1)C(=O)OC2`, the IC50 (SH-SY5Y) is reported as 9.14 µM, the IC50 (MDA-MB-231) is reported as greater than 50 µM and the IC50 (FaDu) is reported as greater than 50 µM. It also gave an IC50 (A549) of 22 µM, an IC50 [1] greater than 50 µM and an IC50 (HT-29) greater than 50 µM. It also gave an IC50 [2] greater than 50 µM.

For `COC(=O)CC/C(C)=C/Cc1c(OC)c(C)c2c(c1OCC#CCN1CCN(c3ccccc3OC)CC1)C(=O)OC2`, the IC50 (SH-SY5Y) was 43.6 µM, the IC50 (MDA-MB-231) was greater than 50 µM and the IC50 (FaDu) was greater than 50 µM. It also gave an IC50 (A549) greater than 50 µM, an IC50 [1] greater than 50 µM and an IC50 (HT-29) greater than 50 µM. The IC50 [2] was greater than 50 µM.

For `COC(=O)CC/C(C)=C/Cc1c(OC)c(C)c2c(c1OCC#CCN1CCN(C(c3ccccc3)c3ccc(Cl)cc3)CC1)C(=O)OC2` (stereo not given), the IC50 (SH-SY5Y) was 9.9 µM, the IC50 (MDA-MB-231) was greater than 50 µM and the IC50 (FaDu) was greater than 50 µM. It also gave an IC50 (A549) of 29.1 µM, an IC50 [1] greater than 50 µM and an IC50 (HT-29) greater than 50 µM. For the same compound, the IC50 [2] was greater than 50 µM.

Compound `CCCCN(CC#CCOc1c(C/C=C(\C)CCC(=O)OC)c(OC)c(C)c2c1C(=O)OC2)CCCC` has an IC50 (SH-SY5Y) of 21.5 µM, an IC50 (MDA-MB-231) of 39.8 µM and an IC50 (FaDu) of 30.9 µM. The IC50 (A549) was 30.6 µM, the IC50 [1] was 36 µM and the IC50 (HT-29) was greater than 50 µM. The IC50 [2] was 38.2 µM.

`COC(=O)CC/C(C)=C/Cc1c(OC)c(C)c2c(c1OCC#CCN1CCC(C(=O)O)CC1)C(=O)OC2` gave an IC50 (SH-SY5Y) of 47.2 µM, an IC50 (MDA-MB-231) greater than 50 µM and an IC50 (FaDu) greater than 50 µM. For the same compound, the IC50 (A549) was greater than 50 µM, the IC50 [1] was greater than 50 µM and the IC50 (HT-29) was greater than 50 µM. The IC50 [2] was greater than 50 µM.

`COC(=O)CC/C(C)=C/Cc1c(OC)c(C)c2c(c1OCC#CCN1CCN(C(C)=O)CC1)C(=O)OC2` gave an IC50 (SH-SY5Y) greater than 50 µM, an IC50 (MDA-MB-231) greater than 50 µM and an IC50 (FaDu) greater than 50 µM. For the same compound, the IC50 (A549) was greater than 50 µM, the IC50 [1] was greater than 50 µM and the IC50 (HT-29) was greater than 50 µM. It also gave an IC50 [2] greater than 50 µM.

With `COC(=O)CC/C(C)=C/Cc1c(OC)c(C)c2c(c1OCC#CCN1CCN(C(c3ccc(F)cc3)c3ccc(F)cc3)CC1)C(=O)OC2` the IC50 (SH-SY5Y) was 25.8 µM, the IC50 (MDA-MB-231) was greater than 50 µM and the IC50 (FaDu) was greater than 50 µM. It also gave an IC50 (A549) of 34.1 µM, an IC50 [1] greater than 50 µM and an IC50 (HT-29) greater than 50 µM. The IC50 [2] was greater than 50 µM.

For `COC(=O)CC/C(C)=C/Cc1c(OC)c(C)c2c(c1OCC#CCN1CCC(Cc3ccccc3)CC1)C(=O)OC2`, the IC50 (SH-SY5Y) was 24.5 µM, the IC50 (MDA-MB-231) was greater than 50 µM and the IC50 (FaDu) was greater than 50 µM. It also gave an IC50 (A549) of 40.7 µM, an IC50 [1] greater than 50 µM and an IC50 (HT-29) greater than 50 µM. It also gave an IC50 [2] greater than 50 µM.

Compound `COC(=O)CC/C(C)=C/Cc1c(OC)c(C)c2c(c1OCC#CCN(CC#CCOc1c(C/C=C(\C)CCC(=O)OC)c(OC)c(C)c3c1C(=O)OC3)CCC(C)C)C(=O)OC2` has an IC50 (SH-SY5Y) of 20.6 µM, an IC50 (MDA-MB-231) of 48.6 µM and an IC50 (FaDu) of 46.7 µM. The IC50 (A549) was 27.5 µM, the IC50 [1] was 48.2 µM and the IC50 (HT-29) was greater than 50 µM. The IC50 [2] was 48.3 µM.

`COC(=O)CC/C(C)=C/Cc1c(OC)c(C)c2c(c1OCC#CCN1CCN(c3ccc(O)cc3)CC1)C(=O)OC2` gave an IC50 (SH-SY5Y) of 46.1 µM, an IC50 (MDA-MB-231) greater than 50 µM and an IC50 (FaDu) greater than 50 µM. The IC50 (A549) was greater than 50 µM, the IC50 [1] was greater than 50 µM and the IC50 (HT-29) was greater than 50 µM. It also gave an IC50 [2] greater than 50 µM.

For `COC(=O)CC/C(C)=C/Cc1c(OC)c(C)c2c(c1OCC#CCN1CCN(c3ncccn3)CC1)C(=O)OC2`, the IC50 (SH-SY5Y) was greater than 50 µM, the IC50 (MDA-MB-231) was greater than 50 µM and the IC50 (FaDu) was greater than 50 µM. It also gave an IC50 (A549) greater than 50 µM, an IC50 [1] greater than 50 µM and an IC50 (HT-29) greater than 50 µM. It also gave an IC50 [2] greater than 50 µM.

With `COC(=O)CC/C(C)=C/Cc1c(OC)c(C)c2c(c1OCC#CCN1CCN(C(c3ccccc3)c3ccccc3)CC1)C(=O)OC2` the IC50 (SH-SY5Y) was 23.7 µM, the IC50 (MDA-MB-231) was greater than 50 µM and the IC50 (FaDu) was greater than 50 µM. For the same compound, the IC50 (A549) was 32.7 µM, the IC50 [1] was greater than 50 µM and the IC50 (HT-29) was greater than 50 µM. For the same compound, the IC50 [2] was greater than 50 µM.

Compound `COC(=O)CC/C(C)=C/Cc1c(OC)c(C)c2c(c1OCC#CCN1CCN(Cc3ccc4c(c3)OCO4)CC1)C(=O)OC2` has an IC50 (SH-SY5Y) of 34.8 µM, an IC50 (MDA-MB-231) greater than 50 µM and an IC50 (FaDu) greater than 50 µM. The IC50 (A549) was 45.5 µM, the IC50 [1] was greater than 50 µM and the IC50 (HT-29) was greater than 50 µM. The IC50 [2] was greater than 50 µM.

With `COC(=O)CC/C(C)=C/Cc1c(OC)c(C)c2c(c1OCC#CCN1CCN(c3ccc(C#N)cc3)CC1)C(=O)OC2` the IC50 (SH-SY5Y) was 37.8 µM, the IC50 (MDA-MB-231) was greater than 50 µM and the IC50 (FaDu) was greater than 50 µM. For the same compound, the IC50 (A549) was greater than 50 µM, the IC50 [1] was greater than 50 µM and the IC50 (HT-29) was greater than 50 µM. For the same compound, the IC50 [2] was greater than 50 µM.
